Entries after “also recorded” stand apart in the source; their conditions may differ. Where two headings read alike, the source gives them in different places.
Legend:
[1] = system: T. cruzi; details: cited from earlier work
[2] = system: T. cruzi (Tulahuen strain) expressing β-galactosidase; test: T. cruzi growth inhibition assay (β-gal activity, infection of NIH/3T3 cells); format: cell-based, Trypanosoma cruzi; details: Trypanosoma cruzi, TULAHUEN, NIH3T3, 96 h, 4 days
Protocol: NIH/3T3 cells and parasites were harvested, washed once and resuspended in DMEM supplemented with 2% FBS and Pen-Strep-Glut. […] Different numbers of NIH/3T3 cells were seeded in 96-well plates. After 3 h, compounds were added at the indicated concentrations and mixed by pipetting. BZN tablets (Rochagan, Roche) dissolved in DMSO and 4 µM Amphotericin B solution (Sigma-Aldrich) were used as positive controls. Different numbers of T. cruzi parasites were added in a final volume of 200 µl/well. After 4 days, 50 µl of PBS containing 0.5% of the detergent NP40 and 100 µM Chlorophenol Red-β-D-galactoside (CPRG) (Fluka) were added. Plates were incubated at 37°C for 4 h and absorbance was read at 590 nm using a Tecan Spectra Mini plate reader.
To calculate the Z′ factor, we used the formula described by Zhang et al.: Z′ = 1−[(3σc++3σc−) / |μc+−μc−|] where σc+ = standard deviation (SD) of positive control, σc− = SD of negative control, μc+ = mean of positive control, μc− = mean of negative control. Subsequently, the best ratio was used for all growth inhibition assays (50.000 cells and parasites, multiplicity of infection (MOI) 1∶1).
To determine IC50 values, β-gal activity (Abs590) was plotted against compound concentration for each compound. The IC50 was determined as the concentration at which the activity (absorbance) was half that in the absence of compound. Mean IC50 values are the average of independent experiments performed in triplicate on three different days.

[3] = system: T. cruzi Y strain; test: Development assay with immunofluorescence (Y strain); format: cell-based, Trypanosoma cruzi; details: added after 2 h infection, 2 days
Protocol: (§1) Fifty thousand NIH/3T3 cells were seeded on sterile glass coverslips in 12-well plates and allowed to adhere overnight. Five million parasites were added (MOI 100∶1) and allowed to infect for 2 h in DMEM+2% FBS and Pen-Strep-Glut. Parasites were rinsed out three times with PBS. Infected cells were further incubated and fixed for 15 min with 4% paraformaldehyde at the times indicated.
(§2) Fixed cells on coverslips were rinsed with PBS, permeabilized for 15 min in PBS with 0.1% Triton X-100 (Sigma-Aldrich). After blocking for 20 min in PBS with 10% goat serum, 1% bovine serum albumin, 100 mM glycine and 0.05% sodium azide, cells were incubated for 1 h at room temperature with a polyclonal rabbit anti-T. cruzi (gift from Dr B. Burleigh, Harvard School of Public Health, Boston, MA) at 1∶2000 dilution. After rinsing, an Alexa Fluor® 488 goat anti-rabbit IgG secondary antibody (Molecular Probes, Invitrogen) was added for 1 h at a 1∶800 dilution. DNA was stained with DAPI and coverslips were mounted on Mowiol. To determine the number of parasites per infected cell, between 200 and 300 infected cells per coverslip were scored in triplicate samples using an inverted Olympus IX70 microscope with a 60× oil objective. Data are presented as mean±standard deviation. Images were taken with the same microscope.

[4] = system: Free trypomastigotes (β-gal T. cruzi); test: T. cruzi lysis assay; format: cell-based; details: Trypanosoma cruzi; lysis assay, 100,000 parasites, 24 h
Protocol: Trypomastigotes were rinsed once and plated in 96-well plates at 100,000/well with the compounds in a final volume of 200 µl of DMEM without phenol red supplemented with 2% FBS, Pen-Strep-Glut and 100 µM CPRG. Plates were incubated for 24 h at 37°C and absorbance was read at 590 nm.

[5] = system: intracellularly growing T. cruzi amastigotes; test: Development assay with immunofluorescence (intracellular amastigotes, Tulahuen β-gal strain); format: cell-based, Trypanosoma cruzi
Protocol: as §1, §2

[6] = system: L. major; test: Leishmania growth inhibition assay in bone marrow-derived macrophages (L. major); format: cell-based; details: 5 days
Protocol: (§3) Adherent bone marrow-derived macrophages were harvested in cold DMEM+0.5 mM EDTA and seeded into an 8-well Lab-Tek II chambered coverglass (Nalge Nunc International, Naperville, IL) at a concentration of 50,000 cells/chamber 24 h before being used for infections.
(§4) L. major and L. amazonensis parasites were opsonized for 30 min by incubation in DMEM containing 4% BALB/c serum and then allowed to invade macrophages in 200 µl DMEM supplemented with 10% FBS and Pen-Strep-Glut, at a MOI of 3 parasites per macrophage for 2 h at 33°C (5% CO2, 95% air humidity),[17]. Thereafter, non-phagocytosed parasites were washed off, and the cultures were further incubated in 300 µl of medium in the presence or the absence of drugs at the indicated concentration for 3 days for L. amazonensis and 5 days for L. major. Medium was changed and drugs were added again at the same concentration on day 2 post-infection. Intracellular parasites were assessed after staining with DAPI (3 µM) by fluorescence microscopy. The total number of amastigotes/500 macrophages was counted in each well. Kruskal-Wallis test was used to analyze the data, followed by a Dunn's post-comparison test.

[7] = system: L. amazonensis; test: Leishmania growth inhibition assay in bone marrow-derived macrophages (L. amazonensis); format: cell-based; details: 3 days
Protocol: as §3, §4

[8] = system: mammalian cells; test: Cytotoxicity on mammalian cells (cell type not given); format: cell-based; details: type of mammalian cells and duration not specified at the place
Protocol: (§5) Cells (NIH/3T3 or HepG2) were washed and plated at a density of 50,000 cells/well of 96-well plates in 200 µl and allowed to adhere for 3 h. Twenty-four hour assays were done in DMEM without phenol red supplemented with 10% FBS and Pen-Strep-Glut, while 4-day assays were done in the same medium containing 2% FBS. Drugs were added and mixed. After 1 or 4 days, 20 µl of Alamar Blue (Biosource, Invitrogen) was added. Plates were incubated for 4 h (HepG2) or 6 h (NIH/3T3) at 37°C and fluorescence was read using a Labsystems Fluoroskan II plate reader (excitation: 544 nm, emission: 590 nm) .
(§6) To determine TC50 values, fluorescence was plotted against inhibitor concentration. TC50 was determined as the concentration at which cytotoxicity (fluorescence) was half that in the absence of inhibitor.

[9] = system: NIH/3T3 cells; test: Cytotoxicity assay (Alamar Blue) on NIH/3T3 cells; format: cell-based; details: 4 days
Protocol: as §5, §6

[10] = system: HepG2 cells; test: Cytotoxicity assay (Alamar Blue) on HepG2 cells; format: cell-based, human
Protocol: as §5, §6

[11] = system: Leishmania; design: method as in PMID 15891135; details: read-out: IC50 (Leishmania positive control); cited from earlier work
[12] = 2 µM, added 2 h post-infection of macrophages

## OC(Cn1cncn1)(Cn1cncn1)c1ccc(F)cc1F [Fluconazole, fluconazole]
[1]; read-out: IC50 against T. cruzi in vitro
  IC50: 8 µM

## Cc1cc(OCCCCCCn2ccnc2)cc(C)c1Cl [CX1, 1-[6-(4-chloro-3,5-dimethylphenoxy)hexyl]-1H-imidazole]
[2]; β-gal T. cruzi Tulahuen, 50.000 NIH/3T3 cells and parasites (MOI 1:1), read-out: IC50 Intracellular growth
  IC50: 0.023 ± 0.007 µM
[3]
  Effect on intracellular T. cruzi Y strain: induced parasite lysis with morphological changes; also recorded: dose effect on the Y strain of T. cruzi was similar to the β-gal-expressing Tulahuen strain
[4]
  IC50: 13.5 ± 1 µM
[5]; added 2 days after infection
  Phenotype of intracellular T. cruzi, compounds added 2 days after infection: induced parasite lysis and host cell apoptosis in concentrations as low as 90 nM
[5]; added after 2 h infection, fixed after 2 or 3 days, PCH1 100 nM, NT1 400 nM, CX1 90 nM
  Morphology of intracellularly growing T. cruzi: displayed pycnotic nuclei (star) and debris of parasites protein and DNA throughout the cytoplasm
[6]; [12]
  Reduction in parasite burden, L. major: ~70%
[6]; Leishmania major, Macrophage, 120 h, macrophages, read-out: estimated IC50 against intracellular L. major
  IC50: ~0.5 µM
[7]; [12]
  Reduction in parasite burden, L. amazonensis: 70%
[7]; Leishmania amazonensis, Macrophage, 72 h, macrophages, read-out: estimated IC50 against intracellular L. amazonensis
  IC50: ~0.5 µM
[8]
  Toxicity (TC50) versus anti-trypanosomal activity (IC50): over 500 fold
[9]
  TC50 NIH/3T3 cells at 4 days: 16 ± 6 µM
[10]; 24 h
  TC50 HepG2 cells at 24 h: 57 ± 8 µM
[10]; 4 days
  TC50 HepG2 cells at 4 days: 12 ± 4 µM

## O=C(Cn1ccnc1[N+](=O)[O-])NCc1ccccc1 [BZN, benznidazole, reference compound]
[2]; β-gal T. cruzi Tulahuen in NIH/3T3 cells, read-out: IC50 T. cruzi growth inhibition
  IC50: 1.15 µM
[1]; read-out: IC50 against T. cruzi (reported)
  IC50: 1.5 µM

## C[C@@H]1[C@H](O)[C@@H](C)/C=C/C=C/C=C/C=C/C=C/C=C/C=C/[C@H](O[C@@H]2O[C@H](C)[C@@H](O)[C@H](N)[C@@H]2O)C[C@@H]2O[C@](O)(C[C@@H](O)C[C@@H](O)[C@H](O)CC[C@@H](O)C[C@@H](O)CC(=O)O[C@H]1C)C[C@H](O)[C@H]2C(=O)O [Amphotericin B]
[11]
  IC50: 0.1 µM

— paper PMC2639639, “Identification of Three Classes of Heteroaromatic Compounds with Activity against Intracellular Trypanosoma cruzi by Chemical Library Screening” (PLoS Neglected Tropical Diseases, 2009)
